{"source": "patent US20080072640A1", "about": "“Insecticidal Fertilizer Solids and Method of Preparation” (priority 2006, published 2008)", "test": "Solubility of imidacloprid in organic solvents", "type": "physicochemical", "source_text": "U.S. Pat. No. 5,783,203 mentions acetone as a solvent for imidacloprid. […] Using a 6 wt % solution imidacloprid in acetone would mean applying 1.67 wt % of the solution on the fertilizer based on the combined weight of the fertilizer and the solution to achieve a product with 0.10 wt % imidacloprid. This would be very difficult to achieve a dry product. Fertilizer products with 0.2 wt % and 0.5 wt % imidacloprid would require 3.33 wt % and 8.33 wt % respectively of the imidacloprid solution absorbed onto the fertilizer; concentrations which are not likely feasible in acetone. In addition, acetone is highly flammable which would make processing very difficult and expensive.\nPreferably, the solvent system for use in the present invention consists essentially of either N-methyl-2-pyrrolidone or DMSO. […] Amine-stabilized or caustic-stabilized N-vinyl-pyrrolidone can form a solution with imidacloprid in an amount of about 15 wt % at 25° C. […] The solvent system can consist essentially of N-methyl-2-pyrrolidone, DMSO or a mixture of either N-methyl-2-pyrrolidone or DMSO with one or more co-solvents.\nAn imidacloprid solution was prepared by dissolving imidacloprid in dimethyl sulfoxide (DMSO). […] The resulting solution can be sprayed onto a particulate fertilizer in an amount to provide a dry particulate composition containing about 0.1 wt % imidacloprid.\nThe solubility of imidacloprid TGAI in N-methyl-2-pyrrolidone (NMP) was investigated. NMP has a favorable flash point of 187° F. (closed cup), mild odor, and is slow to volatilize, which are all very favorable properties. […] A 30 wt % solution can easily be prepared to spray onto fertilizer solids. Spraying a 0.50 wt % solution on fertilizer would achieve 0.15 wt % active ingredient. Spraying a 0.67 wt % solution and 1.67% wt % solution would achieve 0.20 wt % and 0.50 wt % active ingredient, respectively. These are highly plausible concentrations for use.", "data": [{"smiles": "O=[N+]([O-])NC1=NCCN1Cc1ccc(Cl)nc1", "note": "[imidacloprid, 1-((6-chloro-3-pyridinyl)methyl)-N-nitro-2-imidazolidinimine]", "values": [{"measurement": "solubility of imidacloprid in NMP", "setting": "solvent N-methyl-2-pyrrolidone (NMP), room temperature", "result": "~35", "unit": "wt %"}, {"measurement": "solubility of imidacloprid in N-methyl-2-pyrrolidone", "setting": "solvent N-methyl-2-pyrrolidone, 25° C.", "result": "about 32 wt %"}, {"measurement": "solubility of imidacloprid in acetone", "setting": "solvent acetone", "result": "less than 7 wt %"}, {"measurement": "solubility of imidacloprid in N-vinyl-pyrrolidone", "setting": "solvent amine-stabilized or caustic-stabilized N-vinyl-pyrrolidone, 25° C.", "result": "about 15 wt %"}, {"measurement": "solubility of imidacloprid in DMSO", "setting": "solvent dimethyl sulfoxide, room temperature of about 23° C.", "result": "about 32 wt %"}]}]}
